Experimental data taken from ChEMBL document CHEMBL1629606, “In vitro and in vivo properties of ellagic acid in malaria treatment” (Antimicrob Agents Chemother, 2009).
The source made the active and inactive calls. The calls are words filed in the database; no cut-off is given here.

Columns and labels:
Plasmodium falciparum [1] = experiment: Antiplasmodial activity against chloroquine-resistant Plasmodium falciparum W2 in presence of atovaquone; type: functional
[2] = tested on: Plasmodium vinckei petteri; experiment: Antiplasmodial activity against Plasmodium vinckei petteri infected in Swiss mouse assessed as survival at 10 mg/kg, ip treated 4 days before infection measured on day 9 postinfection; type: functional, organism-based; set-up: dose 10 mg/kg
Plasmodium falciparum [3] = experiment: Antiplasmodial activity against chloroquine-resistant Plasmodium falciparum W2 in presence of mefloquine; type: functional
Plasmodium falciparum [4] = experiment: Antiplasmodial activity against chloroquine-resistant Plasmodium falciparum W2 in presence of artesunate; type: functional
[5] = tested on: Plasmodium vinckei petteri; experiment: Antiplasmodial activity against Plasmodium vinckei petteri infected in Swiss mouse assessed as inhibition of parasite growth at 100 mg/kg/day, ip measured on day 5 postinfection; type: functional; conditions: 120 h, route intraperitoneal
Mus musculus [6] = experiment: Toxicity in Swiss mouse at 100 mg/kg/day, ip for 4 days measured upto day 30; type: organism-based; set-up: route intraperitoneal; conditions: in vivo, 96 h
[7] = tested on: Plasmodium vinckei petteri; experiment: Antiplasmodial activity against Plasmodium vinckei petteri infected in Swiss mouse assessed as inhibition of parasite growth at 50 mg/kg/day, ip measured on day 4 postinfection; type: functional; conditions: 96 h, route intraperitoneal
[8] = tested on: Plasmodium vinckei petteri; experiment: Antiplasmodial activity against Plasmodium vinckei petteri infected in Swiss mouse assessed as inhibition of parasite growth at 50 mg/kg/day, po measured on day 4 postinfection; type: functional, organism-based
Plasmodium falciparum [9] = experiment: Antiplasmodial activity against Plasmodium falciparum FcM29 assessed as inhibition of parasite growth at 180 nM in presence of 0.87 uM N-acetyl-L-cysteine; type: functional, organism-based
Plasmodium falciparum [10] = experiment: Antiplasmodial activity against Plasmodium falciparum F32; type: functional, organism-based
Vero = experiment: Cytotoxicity against Vero cells at 100 uM by MTS assay; type: cell-based; conditions: chlorocebus sabaeus
Mus musculus [11] = experiment: Toxicity in Swiss mouse at 100 mg/kg/day, po for 4 days measured upto day 30; type: organism-based; set-up: route oral; conditions: in vivo, 96 h
Plasmodium falciparum [12] = experiment: Antiplasmodial activity against Plasmodium falciparum Dd2; type: functional, organism-based
[13] = tested on: Plasmodium vinckei petteri; experiment: Antiplasmodial activity against Plasmodium vinckei petteri infected in Swiss mouse assessed as survival at 10 mg/kg, ip treated 4 days before infection measured on day 6 postinfection; type: functional, organism-based; set-up: dose 10 mg/kg
[14] = tested on: Plasmodium vinckei petteri; experiment: Antiplasmodial activity against Plasmodium vinckei petteri infected in Swiss mouse assessed as recrudescence of malaria at 100 mg/kg/day, ip measured upto day 60 postinfection; type: functional, organism-based
Mus musculus [15] = experiment: Toxicity in Swiss mouse at 1000 mg/kg/day, po for 4 days measured upto day 30; type: organism-based; set-up: route oral; conditions: in vivo, 96 h
[16] = tested on: Plasmodium vinckei petteri; experiment: Antiplasmodial activity against Plasmodium vinckei petteri infected in Swiss mouse assessed as inhibition of parasite growth at 100 mg/kg/day, po measured on day 5 postinfection; type: functional, organism-based
[17] = tested on: Plasmodium vinckei petteri; experiment: Antiplasmodial activity against Plasmodium vinckei petteri infected in Swiss mouse assessed as inhibition of parasite growth at 1 mg/kg/day, po measured on day 4 postinfection; type: functional, organism-based
Plasmodium falciparum [18] = experiment: Antiplasmodial activity against Plasmodium falciparum W2; type: functional, organism-based
Mus musculus [19] = experiment: Toxicity in Swiss mouse at 250 mg/kg/day, po for 4 days measured upto day 30; type: organism-based; set-up: route oral; conditions: in vivo, 96 h
Plasmodium falciparum [20] = experiment: Antiplasmodial activity against chloroquine-resistant Plasmodium falciparum W2 in presence of chloroquine; type: functional
KB = experiment: Cytotoxicity against human KB cells at 100 uM by MTS assay; type: cell-based
Plasmodium falciparum [21] = experiment: Antiplasmodial activity against Plasmodium falciparum FcB1; type: functional, organism-based; conditions: FcB1/Columbia
Mus musculus [22] = experiment: Toxicity in Swiss mouse at 250 mg/kg/day, ip for 4 days measured upto day 30; type: organism-based; set-up: route intraperitoneal; conditions: in vivo, 96 h
[23] = tested on: Plasmodium vinckei petteri; experiment: Antiplasmodial activity against Plasmodium vinckei petteri infected in Swiss mouse assessed as recrudescence of malaria at 50 mg/kg/day, ip measured upto day 60 postinfection; type: functional, organism-based
[24] = tested on: Plasmodium vinckei petteri; experiment: Antiplasmodial activity against Plasmodium vinckei petteri infected in Swiss mouse assessed as mortality at 100 mg/kg, po treated 4 days after infection measured on day 7 postinfection; type: functional, organism-based; set-up: dose 100 mg/kg
Mus musculus [25] = experiment: Toxicity in Swiss mouse at 500 mg/kg/day, ip for 4 days measured upto day 30; type: organism-based; set-up: route intraperitoneal; conditions: in vivo, 96 h
Mus musculus [26] = experiment: Toxicity in Swiss mouse at 1000 mg/kg/day, ip for 4 days measured upto day 30; type: organism-based; set-up: route intraperitoneal; conditions: in vivo, 96 h
Plasmodium falciparum [27] = experiment: Antiplasmodial activity against Plasmodium falciparum FcM29; type: functional, organism-based
[28] = tested on: Plasmodium vinckei petteri; experiment: Antiplasmodial activity against Plasmodium vinckei petteri infected in Swiss mouse assessed as recrudescence of malaria at 5 mg/kg/day, ip measured upto day 60 postinfection; type: functional, organism-based
Plasmodium falciparum [29] = experiment: Antiplasmodial activity against chloroquine-resistant Plasmodium falciparum W2 in presence of artemisinin; type: functional
MRC5 = experiment: Cytotoxicity against human MRC5 cells at 100 uM by MTS assay; type: cell-based; conditions: mrc5, 100 µM
Monocyte = experiment: Antioxidant activity in human Monocyte assessed as reduced in PMA-induced ROS production at 3.3 uM by chemiluminescence assay; type: functional, cell-based
Plasmodium falciparum [30] = experiment: Antiplasmodial activity against […] Plasmodium falciparum Dd2 assessed as 50% revertant concentration required for mefloquine resistant; type: functional
Mus musculus [31] = experiment: Toxicity in Swiss mouse at 500 mg/kg/day, po for 4 days measured upto day 30; type: organism-based; set-up: route oral; conditions: in vivo, 96 h
Plasmodium falciparum [32] = experiment: Antiplasmodial activity against chloroquine-resistant Plasmodium falciparum W2 assessed as 50% revertant concentration required for chloroquine susceptibility; type: functional

O=c1oc2c(O)c(O)cc3c(=O)oc4c(O)c(O)cc1c4c23 [ELLAGIC ACID]
FIC50 (Plasmodium falciparum [1]): 0.53
Activity [2]: Active
FIC50 (Plasmodium falciparum [3]): 0.64
FIC50 (Plasmodium falciparum [4]): 0.57
inhibition in vivo at 100 mg/kg/day [5]: 100%
Activity (Mus musculus [6]): Non-toxic
inhibition in vivo at 50 mg/kg/day [7]: 100%
Activity [8]: Active
Activity (Plasmodium falciparum [9]): inactive
IC50 (Plasmodium falciparum [10]): 330 nM
Activity (Vero): Non-toxic
Activity (Mus musculus [11]): Non-toxic
IC50 (Plasmodium falciparum [12]): 105 nM
Activity [13]: Active
Activity [14]: Active
Activity (Mus musculus [15]): Non-toxic
Activity [16]: Active
Activity [17]: Active
IC50 (Plasmodium falciparum [18]): 330 nM
Activity (Mus musculus [19]): Non-toxic
FIC50 (Plasmodium falciparum [20]): 0.63
Activity (KB): Non-toxic
IC50 (Plasmodium falciparum [21]): 300 nM
Activity (Mus musculus [22]): Non-toxic
Activity [23]: Active
Activity [24]: inactive
Activity (Mus musculus [25]): Non-toxic
Activity (Mus musculus [26]): Non-toxic
IC50 (Plasmodium falciparum [27]): 180 nM
Activity [28]: Active
FIC50 (Plasmodium falciparum [29]): 1.26
Activity (MRC5): Non-toxic
Activity (Monocyte): Active
Activity (Plasmodium falciparum [30]): 5 ng/mL
Activity (Mus musculus [31]): Non-toxic

C[C@@H]1CC[C@H]2[C@@H](C)C(=O)O[C@@H]3O[C@@]4(C)CC[C@@H]1[C@]32OO4 [ARTEMISININ]
IC50 (Plasmodium falciparum [10]): 12.5 nM
IC50 (Plasmodium falciparum [12]): 13.5 nM
IC50 (Plasmodium falciparum [18]): 13.3 nM
IC50 (Plasmodium falciparum [27]): 12.2 nM

OC1(c2ccc(Cl)c(C(F)(F)F)c2)CCN(CCCC(c2ccc(F)cc2)c2ccc(F)cc2)CC1 [PENFLURIDOL]
Activity (Plasmodium falciparum [30]): 96 ng/mL

COc1ccc(CCN(C)CCCC(C#N)(c2ccc(OC)c(OC)c2)C(C)C)cc1OC (stereo unspecified) [VERAPAMIL]
Activity (Plasmodium falciparum [32]): 0.31 µM
